According to ChEMBL document CHEMBL4376843 (J Med Chem, 2020):

What was measured:
Carbonic anhydrase 9 = Carbonic anhydrase 9 (Homo sapiens, UniProt Q16790)
A549 [1] = test: cells; assay type: functional, cell-based; details: Homo sapiens, A549, 72 h
Description: Antiproliferative activity against human A549 cells measured after 72 hrs under normoxic condition by MTT assay

A549 [2] = test: cells; assay type: functional, cell-based; details: Homo sapiens, A549, 72 h; remark: listed apart in the source
Description: Antiproliferative activity against human A549 cells measured after 72 hrs under CoCl2-induced hypoxic condition by MTT assay

PC-3 [3] = test: cells; assay type: functional, cell-based; details: Homo sapiens, PC-3, 72 h
Description: Antiproliferative activity against human PC3 cells measured after 72 hrs under normoxic condition by MTT assay

PC-3 [4] = test: cells; assay type: functional, cell-based; details: Homo sapiens, PC-3, 72 h; remark: listed apart in the source
Description: Antiproliferative activity against human PC3 cells measured after 72 hrs under CoCl2-induced hypoxic condition by MTT assay

HCT-116 [5] = test: cells; assay type: functional, cell-based; details: Homo sapiens, HCT-116, 72 h
Description: Antiproliferative activity against human HCT116 cells measured after 72 hrs under normoxic condition by MTT assay

HCT-116 [6] = test: cells; assay type: functional, cell-based; details: Homo sapiens, HCT-116, 72 h; remark: listed apart in the source
Description: Antiproliferative activity against human HCT116 cells measured after 72 hrs under CoCl2-induced hypoxic condition by MTT assay

WI-38 = test: Cytotoxicty activity against human WI38 cells measured after 72 hrs by MTT assay; assay type: cell-based; details: WI-38, 72 h
HCT-116 [7] = test: Induction of apoptosis in human HCT116 cells assessed as downregulation of Bcl-2 expression at normoxic antiproliferative IC50 measured after 48 hrs by ELISA relative to control; assay type: functional
Carbonic anhydrase 1 = Carbonic anhydrase 1 (Homo sapiens, UniProt P00915)
Sequence of Carbonic anhydrase 1 (P00915 whole entry): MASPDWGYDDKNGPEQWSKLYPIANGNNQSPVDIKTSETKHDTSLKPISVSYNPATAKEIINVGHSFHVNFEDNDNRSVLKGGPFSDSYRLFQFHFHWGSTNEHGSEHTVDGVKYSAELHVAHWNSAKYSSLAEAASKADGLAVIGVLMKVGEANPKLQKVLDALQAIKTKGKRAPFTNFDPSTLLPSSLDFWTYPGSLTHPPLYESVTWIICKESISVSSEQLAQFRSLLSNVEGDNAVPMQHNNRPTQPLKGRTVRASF

Carbonic anhydrase 2 = Carbonic anhydrase 2 (Homo sapiens, UniProt P00918)
Carbonic anhydrase 4 = Carbonic anhydrase 4 (Homo sapiens, UniProt P22748)
Sequence of Carbonic anhydrase 4 (P22748 whole entry): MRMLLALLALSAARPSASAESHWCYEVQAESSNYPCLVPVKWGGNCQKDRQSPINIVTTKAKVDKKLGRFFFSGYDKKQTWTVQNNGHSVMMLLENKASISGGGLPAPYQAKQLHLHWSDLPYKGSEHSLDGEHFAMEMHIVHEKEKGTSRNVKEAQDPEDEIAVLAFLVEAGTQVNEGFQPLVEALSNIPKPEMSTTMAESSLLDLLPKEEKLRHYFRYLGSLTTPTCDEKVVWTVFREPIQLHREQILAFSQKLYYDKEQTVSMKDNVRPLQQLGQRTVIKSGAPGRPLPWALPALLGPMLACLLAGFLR

Carbonic anhydrase 7 = Carbonic anhydrase 7 (Homo sapiens, UniProt P43166)
Sequence of Carbonic anhydrase 7 (P43166 whole entry): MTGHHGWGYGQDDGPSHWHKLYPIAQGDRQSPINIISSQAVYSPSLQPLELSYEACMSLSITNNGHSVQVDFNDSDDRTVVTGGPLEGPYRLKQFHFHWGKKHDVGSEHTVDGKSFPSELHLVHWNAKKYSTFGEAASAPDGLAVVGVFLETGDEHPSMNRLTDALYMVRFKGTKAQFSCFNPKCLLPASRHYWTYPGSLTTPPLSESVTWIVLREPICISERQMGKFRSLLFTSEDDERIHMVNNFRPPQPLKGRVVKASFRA

Row | SMILES | Ki (Carbonic anhydrase 9) | IC50 (A549 [1]) | IC50 (A549 [2]) | IC50 (PC-3 [3]) | IC50 (PC-3 [4]) | IC50 (HCT-116 [5]) | IC50 (HCT-116 [6]) | Ki (Carbonic anhydrase 1) | Ki (Carbonic anhydrase 2) | Ki (Carbonic anhydrase 4) | Ki (Carbonic anhydrase 7) | IC50 (WI-38) | Activity (HCT-116 [7])
1 | Cc1ccc(C)c2c1NC(=O)NS2(=O)=O | 0.368 µM |  |  |  |  |  |  | 2.54 µM | 2.19 µM | 1.43 µM | 1.9 µM |  | 
2 | O=C1Nc2c(C(=O)O)cccc2S(=O)(=O)N1 | 0.0912 µM |  |  |  |  |  |  | 5.78 µM | 2.44 µM | 0.38 µM | 2.8 µM |  | 
3 | O=C1Nc2ccc(C(=O)O)cc2S(=O)(=O)N1 | 0.0987 µM |  |  |  |  |  |  | > 10 µM | 6.78 µM | 0.0761 µM | 4.96 µM |  | 
4 | O=C1NS(=O)(=O)c2cccc3c2N1CC3 | 0.273 µM |  |  |  |  |  |  | 6.86 µM | 1.06 µM | 3.89 µM | 1.28 µM |  | 
5 | CN1C(=O)NS(=O)(=O)c2cc(Cl)ccc21 | 0.189 µM |  |  |  |  |  |  | > 10 µM | 2.34 µM | 5.88 µM | 3.24 µM |  | 
6 | CN1C(=O)NS(=O)(=O)c2ccccc21 | 0.139 µM | 19.9 µM | 16.3 µM | 23.8 µM | 16.9 µM | 10.9 µM | 7.13 µM | 3.41 µM | 0.853 µM | 3.46 µM | 7.51 µM | 40.9 µM | 
7 | COc1ccc2c(c1)S(=O)(=O)NC(=O)N2 | 0.0358 µM |  |  |  |  |  |  | 3.81 µM | 1.92 µM | 1.94 µM | 1.36 µM |  | 
8 | O=C1Nc2ccc(Br)cc2S(=O)(=O)N1 | 0.031 µM |  |  |  |  |  |  | 4.4 µM | 2.36 µM | 1.56 µM | 0.468 µM |  | 
9 | O=C1NS(=O)(=O)c2ccccc21 [SACCHARIN] |  |  |  |  |  |  |  | > 10 µM |  |  |  |  | 

Stronger by Ki (Carbonic anhydrase 1), values ahead:

Row | Ki (Carbonic anhydrase 9) | IC50 (A549 [1]) | IC50 (A549 [2]) | IC50 (PC-3 [3]) | IC50 (PC-3 [4]) | IC50 (HCT-116 [5]) | IC50 (HCT-116 [6]) | Ki (Carbonic anhydrase 1) | Ki (Carbonic anhydrase 2) | Ki (Carbonic anhydrase 4) | Ki (Carbonic anhydrase 7) | SMILES | IC50 (WI-38) | Activity (HCT-116 [7])
10 | 0.0787 µM | 3.53 µM | 2.68 µM | 14 µM | 12.2 µM | 1.3 µM | 1.5 µM | 0.866 µM | 0.15 µM | 0.675 µM | 0.466 µM | O=C1Nc2ccccc2S(=O)(=O)N1 | 39.9 µM | 59%
11 | 0.0639 µM |  |  |  |  |  |  | 0.969 µM | 0.144 µM | 1.23 µM | 0.975 µM | Cc1cccc2c1NC(=O)NS2(=O)=O |  | 
12 | 0.0881 µM |  |  |  |  |  |  | 1.89 µM | 3.02 µM | 0.452 µM | 2.56 µM | O=C1Nc2ccc(O)cc2S(=O)(=O)N1 |  | 
13 | 0.0584 µM |  |  |  |  |  |  | 0.547 µM | 0.14 µM | 0.461 µM | 0.126 µM | O=C1Nc2c(F)cccc2S(=O)(=O)N1 |  | 
14 | 0.0602 µM |  |  |  |  |  |  | 2.07 µM | 0.484 µM | 2.67 µM | 3.95 µM | O=C1Nc2c(ccc3ccccc23)S(=O)(=O)N1 |  | 
15 | 0.408 µM |  |  |  |  |  |  | 1.92 µM | 2.94 µM | 2.69 µM | 1.79 µM | Cc1cc(C)c2c(c1)NC(=O)NS2(=O)=O |  | 
16 | 0.0733 µM |  |  |  |  |  |  | 2.32 µM | 0.527 µM | 0.854 µM | 0.62 µM | O=C1Nc2c(Br)cccc2S(=O)(=O)N1 |  | 
17 | 0.0282 µM | 10.9 µM | 7.35 µM | 16.2 µM | 3.52 µM | 5.26 µM | 7.57 µM | 0.93 µM | 0.685 µM | 1.03 µM | 0.389 µM | O=C1Nc2c(Cl)cccc2S(=O)(=O)N1 | 36.6 µM | 
18 | 0.0458 µM |  |  |  |  |  |  | 1.07 µM | 0.872 µM | 0.897 µM | 0.956 µM | Cc1ccc2c(c1)S(=O)(=O)NC(=O)N2 |  | 
19 | 0.0191 µM | 18.3 µM | 15 µM | 12 µM | 6.53 µM | 3.86 µM | 2.73 µM | 1.29 µM | 0.534 µM | 0.709 µM | 0.436 µM | O=C1Nc2ccc(F)cc2S(=O)(=O)N1 | 125 µM | 42%
20 | 0.0569 µM |  |  |  |  |  |  | 1.86 µM | 1.14 µM | 1.75 µM | 1.18 µM | O=C1Nc2ccc(Cl)cc2S(=O)(=O)N1 |  | 
21 | 0.0258 µM | 4.77 µM | 5.74 µM | 6.31 µM | 0.82 µM | 3.85 µM | 4.18 µM | 1.27 µM | 0.764 µM | 1.64 µM | 0.691 µM | Cc1cc(C)c2c(c1)S(=O)(=O)NC(=O)N2 | 23.5 µM | 
